Patent publication US20150118329A1, “METHOD FOR PROMOTING ADIPONECTIN PRODUCTION, PREVENTION AND TREATMENT OF HYPOADIPONECTINEMIA” (AMINO UP CHEMICAL CO., LTD., priority 2011, published 2015)

Test system: adipocytes derived from a patient with diabetes, who was severely obese
Test: Screening of functional food product materials (samples 1 to 71) for APR in adipocytes derived from a severely obese diabetic patient
Format: cell-based, human
Settings: 48 hour value divided by 96 hour value
Description: Fat tissues were harvested from remainder tissues removed at the time of surgery of a subject (a patient who was severely obese and had diabetes) who provided informed consent. These fat tissues were treated in the same manner as in Example 1 and used in screening for the adiponectin production-promoting action of functional food product materials (samples 1 to 71).
The samples 1 to 71 (Table 1 and Table 2) were suspended and dissolved in water, heated water (80° C.) or DMSO, and then stirred for 30 minutes, followed by filter filtration […]) for preparation thereof. The sample 25 was prepared by filter filtration (Φ0.45 μm) without carrying out dilution. Further, with regard to the samples 1 to 18, each of the samples was made with water to 1% suspension or aqueous solution, followed by filter filtration (Φ0.45 μm) for preparation thereof. Botanbouhu extract of the samples 58 and 59 was prepared in the same manner as in Example 2. Table 1 and Table 2 show material, solvent and concentration in the culture medium of samples 1 to 71 (samples 6 to 8 “Mixture of three types of peptides” (manufactured by Katano Bussan) is a mixture of peptides derived from dried kelp or konbu, sardine and pearl oyster).
Eight days after DM-2 treatment, the medium was changed to AM-1 medium with each of the samples 1 to 71 being added and 48 hour value and 96 hour value were measured in the same manner as described in Example 3. APR (Adiponectin Production Ratio; adiponectin secretion promoting index) was calculated by dividing the 48 hour value by the 96 hour value. The results are shown in Table 1 and Table 2 and FIG. 4A.

[1] = concentration in culture medium 10 nM
[2] = concentration in culture medium 0.067%

| Compound | APR [1] | APR [2] |
| --- | --- | --- |
| Cc1c(C(=O)NN2CCCCC2)nn(-c2ccc(Cl)cc2Cl)c1-c1ccc(Cl)cc1 [Sample 62, Rimonabant] | 0.69 | – |
| O=S(=O)(c1cccc2cnccc12)N1CCCNCC1 [Sample 66, Fasudil] | 0.58 | – |
| Hyaluronic acid [Sample 31] | – | 0.36 |
| CC1=C(/C=C/C(C)=C/C=C/C(C)=C/C=C/C=C(C)/C=C/C=C(C)/C=C/C2=C(C)C(=O)[C@@H](O)CC2(C)C)C(C)(C)C[C@H](O)C1=O [Sample 37, Astaxanthin] | – | 0.34 |
| CCC1=C(C)CN(C(=O)NCCc2ccc(S(=O)(=O)NC(=O)N[C@H]3CC[C@H](C)CC3)cc2)C1=O [Sample 70, Glimepyride] | 0.82 | – |
| CCCc1nc2c(C)cc(-c3nc4ccccc4n3C)cc2n1Cc1ccc(-c2ccccc2C(=O)O)cc1 [Sample 61, Telmisartan] | 0.54 | – |
| CC(C)(Oc1ccc(CCNC(=O)c2ccc(Cl)cc2)cc1)C(=O)O [Sample 65, Bezafibrate] | 0.75 | – |
| CCc1ccc(CCOc2ccc(CC3SC(=O)NC3=O)cc2)nc1 (stereo not shown) [Sample 60, Pioglitazone] | 0.96 | – |
| CN(C)C(=N)N=C(N)N [Sample 71, Metformin] | 0.53 | – |
| COC(=O)[C@@H]1CC2=CC(=O)CC[C@]2(C)[C@@]23O[C@@H]2C[C@@]2(C)[C@@H](CC[C@@]24CCC(=O)O4)[C@H]13 [Sample 64, Eplerenone] | 0.62 | – |
| CCCc1nc(C(C)(C)O)c(C(=O)O)n1Cc1ccc(-c2ccccc2-c2nnn[nH]2)cc1 [Sample 69, Olmesartan] | 0.00 | – |
| Fucoxanthin [Sample 36] | – | 0.34 |
| CC(=O)S[C@@H]1CC2=CC(=O)CC[C@]2(C)[C@H]2CC[C@@]3(C)[C@@H](CC[C@@]34CCC(=O)O4)[C@H]12 [Sample 63, Spironolactone] | 0.60 | – |
